# Read-outs that look alike come from different tables or passages of the source.
# What was measured:
# KMT9 [1] = biological target: T1, KMT9 (Homo sapiens, UniProt Q9Y5N5); assay: Microscale thermophoresis (MST) KMT9 binding
# T1 sequence (Q9Y5N5 1-214): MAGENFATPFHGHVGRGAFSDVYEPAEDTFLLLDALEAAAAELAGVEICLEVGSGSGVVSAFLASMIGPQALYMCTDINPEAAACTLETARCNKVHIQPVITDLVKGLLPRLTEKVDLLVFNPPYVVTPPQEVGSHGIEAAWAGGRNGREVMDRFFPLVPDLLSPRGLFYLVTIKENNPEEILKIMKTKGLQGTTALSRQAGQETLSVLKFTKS
# T1 sequence (Q9UI30 1-120 isoform Q9UI30-2 partner): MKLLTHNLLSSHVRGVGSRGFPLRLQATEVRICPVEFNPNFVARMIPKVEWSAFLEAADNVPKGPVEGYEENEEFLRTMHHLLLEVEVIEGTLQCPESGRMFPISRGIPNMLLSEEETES
# Summary of the method: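 His-tagged KMT9 (20 nM), RED-Tris-NTA labelled, titrated with varying compound concentrations in 25 mM HEPES pH 7.5, 100 mM NaCl, 1 mM DTT, 0.05% Tween. MST at 40% MST and 100% LED power, Nano-RED excitation; Kd binned A ≤10 nM, B 10–100, C 100–1000, D >1000 nM.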
# KMT9 [2] = biological target: T1, KMT9; assay: KMT9 thermal shift assay (SyproOrange); assay type: binding
# Summary of the method: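 Recombinant KMT9 was incubated with compound and SyproOrange at 25° C in 50 mM BTP pH 8.5, 1 mM MgCl2, 1 mM DTT. It was then heated from 20° C to 95° C at 1° C per 15 s with fluorescence read each step. Tm came from a Boltzmann sigmoidal fit; ΔTm relative to DMSO control, binned in 5 K ranges.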
# KMT9 [3] = biological target: T1, KMT9; assay: KMT9 methyltransferase inhibition assay, MTaseGlo luminescence (from entry 155); assay type: biochemical; conditions: 100 nM KMT9, 5 μM ETF1, 1 μM SAM
# Summary of the method: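 KMT9 (100 nM final) pre-incubated with inhibitor for 15 min at room temperature, then reacted with 5 μM ETF1 and 1 μM SAM for 2 h at 30° C. at 2% DMSO final. MTaseGlo luminescence read after 60 min detection; IC50 reported in four potency bins.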
# [4] = His-tag labelled KMT9 20 nM, read-out: MST (Kd)
# [5] = 500 µM compound, 2 μM KMT9, read-out: Thermal shift (ΔTm)
# [6] = MTaseGlo procedure (entries from 155), read-out: Inhibition (IC50)
# [7] = His-tag labelled KMT9 20 nM, Kd class, read-out: MST
# [8] = ΔTm class, 500 uM compound, 2 μM KMT9, read-out: Thermal shift
# [9] = IC50 class, MTaseGlo procedure (entries from 155 on), read-out: Inhibition
# [10] = microscale thermophoresis, His-tag labelled KMT9 (20 nM), read-out: MST
# [11] = ΔTm, 500 µM compound, 2 μM KMT9, 5X SO, read-out: Thermal shift
# [12] = from entry 155: MTaseGlo assay, read-out: Inhibition
smiles,measurement,setting,value
"Nc1nc(Cl)nc2c1ccn2[C@@H]1C[C@H](c2cnn(CCc3ccccc3)c2)[C@@H](O)[C@H]1O [Compound 584, (1R,2S,3R,5R)-3-(4-Amino-2-chloro-7H-pyrrolo[2,3-d]pyrimidin-7-yl)-5-(1-phenethyl-1H-pyrazol-4-yl)cyclopentane-1,2-diol]",Kd,KMT9 [1]; [4],> 1000 nM
same,ΔTm at 500 µM,KMT9 [2]; [5],≤ 10 °C
same,IC50,KMT9 [3]; [6],> 10000 nM
"CN1CCC=C([C@H]2C[C@@H](n3cc(-c4nc(Cc5ccccc5)cs4)c4cnc(Cl)nc43)[C@H](O)[C@@H]2O)C1 [Compound 585, (1R,2S,3R,5R)-3-[5-(4-Benzyl-1,3-thiazol-2-yl)-2-chloropyrrolo[2,3-d]pyrimidin-7-yl]-5-(1-methyl-5,6-dihydro-2H-pyridin-3-yl)cyclopentane-1,2-diol]",Kd,KMT9 [1]; [7],100 to 1000 nM
same,ΔTm at 500 µM,KMT9 [2]; [8],10 to 15 °C
same,IC50,KMT9 [3]; [9],1000 to 10000 nM
"O[C@@H]1[C@H](O)[C@@H](C2=CCCN(CC3CC3)C2)C[C@H]1n1cc(-c2nc(Cc3ccccc3)cs2)c2cnc(Cl)nc21 [Compound 586, (1R,2S,3R,5R)-3-[5-(4-Benzyl-1,3-thiazol-2-yl)-2-chloropyrrolo[2,3-d]pyrimidin-7-yl]-5-[1-(cyclopropylmethyl)-5,6-dihydro-2H-pyridin-3-yl]cyclopentane-1,2-diol]",Kd,KMT9 [1]; [7],100 to 1000 nM
same,ΔTm at 500 µM,KMT9 [2]; [8],≤ 10 °C
same,IC50,KMT9 [3]; [9],1000 to 10000 nM
"O[C@@H]1[C@H](O)[C@@H](C2=CCCN(C3CC3)C2)C[C@H]1n1cc(-c2nc(Cc3ccccc3)cs2)c2cnc(Cl)nc21 [Compound 587, (1R,2S,3R,5R)-3-[5-(4-Benzyl-1,3-thiazol-2-yl)-2-chloropyrrolo[2,3-d]pyrimidin-7-yl]-5-(1-cyclopropyl-5,6-dihydro-2H-pyridin-3-yl)cyclopentane-1,2-diol]",Kd,KMT9 [1]; [7],> 1000 nM
same,ΔTm at 500 µM,KMT9 [2]; [8],≤ 10 °C
same,IC50,KMT9 [3]; [9],> 10000 nM
"O[C@@H]1[C@H](O)[C@@H](C2=CCCN(CCc3ccccc3)C2)C[C@H]1n1cc(-c2nc(Cc3ccccc3)cs2)c2cnc(Cl)nc21 [Compound 588, (1R,2S,3R,5R)-3-[5-(4-Benzyl-1,3-thiazol-2-yl)-2-chloropyrrolo[2,3-d]pyrimidin-7-yl]-5-[1-(2-phenylethyl)-5,6-dihydro-2H-pyridin-3-yl]cyclopentane-1,2-diol]",Kd,KMT9 [1]; [7],> 1000 nM
same,ΔTm at 500 µM,KMT9 [2]; [8],≤ 10 °C
same,IC50,KMT9 [3]; [9],> 10000 nM
"Nc1ncnc2c1c(-c1nc(Cc3ccccc3)cs1)cn2[C@@H]1C[C@H]([C@H]2CCNC2)[C@@H](O)[C@H]1O [Compound 589R, (1R,2S,3R,5R)-3-[4-Amino-5-(4-benzyl-1,3-thiazol-2-yl)pyrrolo[2,3-d]pyrimidin-7-yl]-5-[(3R)-pyrrolidin-3-yl]cyclopentane-1,2-diol]",Kd,KMT9 [1]; [7],100 to 1000 nM
same,ΔTm at 500 µM,KMT9 [2]; [8],10 to 15 °C
same,IC50,KMT9 [3]; [9],1000 to 10000 nM
"Nc1ncnc2c1c(-c1nc(Cc3ccccc3)cs1)cn2[C@@H]1C[C@H]([C@@H]2CCNC2)[C@@H](O)[C@H]1O [Compound 589S, (1R,2S,3R,5R)-3-[4-Amino-5-(4-benzyl-1,3-thiazol-2-yl)pyrrolo[2,3-d]pyrimidin-7-yl]-5-[(3S)-pyrrolidin-3-yl]cyclopentane-1,2-diol]",Kd,KMT9 [1]; [7],100 to 1000 nM
same,ΔTm at 500 µM,KMT9 [2]; [8],10 to 15 °C
same,IC50,KMT9 [3]; [9],1000 to 10000 nM
"Nc1nc(Cl)nc2c1ccn2[C@@H]1C[C@H](c2ccc(=O)[nH]c2)[C@@H](O)[C@H]1O [Compound 590, 5-[(1R,2R,3S,4R)-4-{4-Amino-2-chloropyrrolo[2,3-d]pyrimidin-7-yl}-2,3-dihydroxycyclopentyl]-1H-pyridin-2-one]",Kd,KMT9 [1]; [4],100 to 1000 nM
same,ΔTm at 500 µM,KMT9 [2]; [5],≤ 10 °C
same,IC50,KMT9 [3]; [6],1000 to 10000 nM
"COc1ccc([C@H]2C[C@@H](n3ccc4c(N)nc(Cl)nc43)[C@H](O)[C@@H]2O)cn1 [Compound 591, (1R,2S,3R,5R)-3-{4-amino-2-chloropyrrolo[2,3-d]pyrimidin-7-yl}-5-(6-methoxypyridin-3-yl)cyclopentane-1,2-diol]",Kd,KMT9 [1]; [4],10 to 100 nM
same,ΔTm at 500 µM,KMT9 [2]; [5],10 to 15 °C
same,IC50,KMT9 [3]; [6],100 to 1000 nM
"NCCc1cccc([C@H]2C[C@@H](n3ccc4c(N)ncnc43)[C@H](O)[C@@H]2O)c1 [Compound 592, (1S,2R,3R,5R)-3-[3-(2-Aminoethyl)phenyl]-5-{4-aminopyrrolo[2,3-d]pyrimidin-7-yl}cyclopentane-1,2-diol]",Kd,KMT9 [1]; [4],> 1000 nM
same,ΔTm at 500 µM,KMT9 [2]; [5],≤ 10 °C
same,IC50,KMT9 [3]; [6],1000 to 10000 nM
"CC1CNCCC1[C@H]1C[C@@H](n2cc(-c3nc(Cc4ccccc4)cs3)c3c(N)ncnc32)[C@H](O)[C@@H]1O (stereo partly drawn) [Compound 595, (1R,2S,3R,5R)-3-[4-amino-5-(4-benzyl-1,3-thiazol-2-yl)pyrrolo[2,3-d]pyrimidin-7-yl]-5-(3-methylpiperidin-4-yl)cyclopentane-1,2-diol]",Kd,KMT9 [1]; [4],100 to 1000 nM
same,ΔTm at 500 µM,KMT9 [2]; [5],10 to 15 °C
same,IC50,KMT9 [3]; [6],1000 to 10000 nM
"CNc1nc(Cl)nc2c1ccn2[C@@H]1C[C@H](c2ccccc2)[C@@H](O)[C@H]1O [Compound 596, (1R,2S,3R,5R)-3-(2-Chloro-4-(methylamino)-7H-pyrrolo[2,3-d]pyrimidin-7-yl)-5-phenylcyclopentane-1,2-diol]",Kd,KMT9 [1]; [4],100 to 1000 nM
same,ΔTm at 500 µM,KMT9 [2]; [5],≤ 10 °C
same,IC50,KMT9 [3]; [6],1000 to 10000 nM
"CN1CCC[C@H]([C@H]2C[C@@H](n3cc(-c4nc(Cc5ccccc5)cs4)c4c(N)nc(Cl)nc43)[C@H](O)[C@@H]2O)C1 [Compound 597R, (1R,2S,3R,5R)-3-(4-Amino-5-(4-benzylthiazol-2-yl)-2-chloro-7H-pyrrolo[2,3-d]pyrimidin-7-yl)-5-((R)-1-methylpiperidin-3-yl)cyclopentane-1,2-diol]",Kd,KMT9 [1]; [4],≤ 10 nM
same,ΔTm at 500 µM,KMT9 [2]; [5],15 to 20 °C
same,IC50,KMT9 [3]; [6],100 to 1000 nM
"CN1CCC[C@@H]([C@H]2C[C@@H](n3cc(-c4nc(Cc5ccccc5)cs4)c4c(N)nc(Cl)nc43)[C@H](O)[C@@H]2O)C1 [Compound 597S, (1R,2S,3R,5R)-3-(4-amino-5-(4-benzylthiazol-2-yl)-2-chloro-7H-pyrrolo[2,3-d]pyrimidin-7-yl)-5-((S)-1-methylpiperidin-3-yl)cyclopentane-1,2-diol]",Kd,KMT9 [1]; [4],≤ 10 nM
same,ΔTm at 500 µM,KMT9 [2]; [5],15 to 20 °C
same,IC50,KMT9 [3]; [6],100 to 1000 nM
"Nc1ncnc2c1c(-c1nc(Oc3ccccc3)cs1)cn2[C@@H]1C[C@H](CNCCCNCCc2ccccc2)[C@@H](O)[C@H]1O [Compound 607, (1R,2S,3R,5R)-3-(4-amino-5-(4-phenoxythiazol-2-yl)-7H-pyrrolo[2,3-d]pyrimidin-7-yl)-5-(((3-(phenethylamino)propyl)amino)methyl)cyclopentane-1,2-diol]",Kd,KMT9 [1]; [10],10 to 100 nM
same,ΔTm at 500 µM,KMT9 [2]; [11],15 to 20 °C
same,IC50,KMT9 [3]; [12],100 to 1000 nM
"O[C@@H]1[C@@H](CNCCCNCCc2ccccc2)C[C@@H](n2cc(-c3nc(Cc4ccccc4)cs3)c3cncnc32)[C@@H]1O [Compound 613, (1R,2S,3R,5R)-3-(5-(4-benzylthiazol-2-yl)-7H-pyrrolo[2,3-d]pyrimidin-7-yl)-5-(((3-(phenethylamino)propyl)amino)methyl)cyclopentane-1,2-diol]",Kd,KMT9 [1]; [10],> 1000 nM
same,ΔTm at 500 µM,KMT9 [2]; [11],10 to 15 °C
same,IC50,KMT9 [3]; [12],1000 to 10000 nM
"COc1csc(-c2cn([C@@H]3C[C@H](CNCCCNCCc4ccccc4)[C@@H](O)[C@H]3O)c3ncncc23)n1 [Compound 615, (1R,2S,3R,5R)-3-(5-(4-Methoxythiazol-2-yl)-7H-pyrrolo[2,3-d]pyrimidin-7-yl)-5-(((3-(phenethylamino)propyl)amino)methyl)cyclopentane-1,2-diol]",Kd,KMT9 [1]; [7],> 1000 nM
same,ΔTm at 500 µM,KMT9 [2]; [8],≤ 10 °C
same,IC50,KMT9 [3]; [9],> 10000 nM
O[C@@H]1[C@@H](CN(CCCNCCc2ccccc2)c2cn[nH]c2)C[C@@H](n2cc(-c3cccs3)c3cncnc32)[C@@H]1O [Compound 616],Kd,KMT9 [1]; [10],10 to 100 nM
same,ΔTm at 500 µM,KMT9 [2]; [11],10 to 15 °C
same,IC50,KMT9 [3]; [12],1000 to 10000 nM
"O[C@@H]1[C@@H](CNCCCNCCc2ccccc2)C[C@@H](n2cc(-c3cc(Cc4ccccc4)ns3)c3cncnc32)[C@@H]1O [Compound 617, (1R,2S,3R,5R)-3-[5-(3-Benzyl-1,2-thiazol-5-yl)pyrrolo[2,3-d]pyrimidin-7-yl]-5-[({3-[(2-phenylethyl)amino]propyl}amino)methyl]cyclopentane-1,2-diol]",Kd,KMT9 [1]; [10],> 1000 nM
same,ΔTm at 500 µM,KMT9 [2]; [11],10 to 15 °C
same,IC50,KMT9 [3]; [12],1000 to 10000 nM
"O[C@@H]1[C@@H](CNCCCNCCc2ccc(F)cc2)C[C@@H](n2cc(-c3cc(Cc4ccccc4)cs3)c3cncnc32)[C@@H]1O [Compound 618, (1R,2S,3R,5R)-3-[5-(4-Benzylthiophen-2-yl)pyrrolo[2,3-d]pyrimidin-7-yl]-5-{[(3-{[2-(4-fluorophenyl)ethyl]amino}propyl)amino]methyl}cyclopentane-1,2-diol]",Kd,KMT9 [1]; [7],100 to 1000 nM
same,ΔTm at 500 µM,KMT9 [2]; [8],10 to 15 °C
same,IC50,KMT9 [3]; [9],1000 to 10000 nM

# Source: patent US20250188110A1, “SPECIFIC SMALL MOLECULE INHIBITORS THAT BLOCK KMT9 METHYLTRANSFERASE ACTIVITY AND FUNCTION” (ALBERT-LUDWIGS-UNIVERSITÄT FREIBURG, priority 2021, published 2025)
